# Experiments:
# [1] = Aqueous solubility; assay type: physicochemical
# Experimental: (§1) Two specific toxicity assays have been performed to assess hepatoxicity and cardiotoxicity. Hepatotoxicity was evaluated in isolated hepatocytes from swiss mice and determined by the MTT colorimetric assay. Cardiotoxicity was evaluated using the commercially available Predictor hERG fluorescence polarization kit (Thermo Fisher Scientific). Several ADME assays have been carried out on the compounds generated throughout the project. The following experiments were undertaken: Stability in human microsomes, binding to human plasma protein, and CYP3A4 inhibition assay (Vivid CYP3A4 assay, Thermo Fisher Scientific). Physico-chemical properties were also assessed such as aqueous solubility and chemical stability.
# [2] = tested on: isolated hepatocytes from swiss mice; test: Hepatotoxicity, MTT colorimetric assay; assay type: cell-based
# Experimental: as §1
# [3] = tested on: Myocardial Infarction Model; test: Cardiac function (echocardiography, LV hemodynamics) in the myocardial infarction model; assay type: in vivo, mice; settings: MI model, 100 mg/kg/day in food admix, three months
# Experimental: 8-12 weeks old mice (WT C57B16 for GP1 compound experiments) or 8-12 weeks old mice with genetic inactivation of lcn2 (as described in Martinez-martinez et al., Hypertension 2017, December; 70(6):1148-1156) have been used. LV diastolic and systolic diameters were measured in anesthetized (isofluorane 1.5%) mice, according to the American Society of Echocardiography's leading-edge method (using Vivid 7 echograph a 14 Mhz probe). In addition, LV outflow velocity was measured by pulsed waves, and CO was calculated as follows: CO=aortic VTI×[πx·(LV outflow diameter/2)^2]×heart rate, where VTI is velocity-time integral.
# LV hemodynamic was assessed as described previously.
# Mice were anesthetized (chloral 320 mg·kg−1, IP) and the carotid artery cannulated with a pressure-volume catheter (SPR839, Millar-Instruments, USA) and the catheter was advanced into the LV. Pressure-volume loops were obtained at baseline and during loading by gently occluding the abdominal aorta. LV end-systolic and end-diastolic pressures, dP/dtmax/min, LV relaxation constant tau and were measured/calculated with IOX software (EMKA, France).
# [4] = tested on: Salt-sensitive hypertension; test: Salt-sensitive hypertension (L-NAME plus High Salt Diet); assay type: in vivo, mice; settings: GP1 100 mg/kg/day in food, 10 days; FIG. 17
# Experimental: Systolic BP was measured by tail-cuff plethysmography in trained conscious mice at weeks 8-10 using a BP2000 Visitech model. BP was measured every day in the same room at the same hour for 5 consecutive days. The BP measurements (expressed as mmHg) presented are the averages of the last 3 days Salt-sensitive hypertension was induced by co-administration of L-NAME 70 mg/l in drinking water together with 8% NaCl in chow food (High Salt Diet, HSD) for 10 days. GP1 (100 mg/kg/day) was added or not into the food. Control experiments included vehicle (control), L-NAME or high salt (HSD) alone. Systolic blood pressure (expressed as mmHg) was estimated in the last 3 days of treatment.
smiles,measurement,setting,value
CC(=O)c1cccc(S(=O)(=O)NCc2ccccc2-n2cccn2)c1 [GPZ614741],Aquous solubility,[1],100%
same,solubility in aqueous buffers (solubility test),[1],perfectly soluble
same,hepatotoxicity (toxicity for hepatocytes),[2]; MTT up to 0.1 mM,no toxicity
same,Hepatotoxicity,[2]; cell wrapped over two lines: No tox up / 100 uM,No tox up
same,fractional shortening (LV Frac. Short.),[3]; FIG. 7 panel A,significant increase
same,stroke volume,[3]; FIG. 7 panel D,increased
same,cardiac output,[3]; FIG. 7 panel E,increased
same,LV diastolic diameter (LV Diast. Diam.),[3]; FIG. 7 panels B-C,slight although statistical non-significant decrease
same,LV systolic diameter (LV Syst. Diam.),[3]; FIG. 7 panels B-C,slight although statistical non-significant decrease
same,LV end-systolic pressure (LVESP),[3]; FIG. 8 panel A,not modified
same,LV dP/dtmax,[3]; FIG. 8 panel B,significant increase
same,LV end-diastolic pressure (LVEDP),[3]; FIG. 8 panel C,tended to be reduced
same,LV dP/dtmin,[3]; FIG. 8 panel D,increased
same,LV relaxation constant Tau,[3]; FIG. 8 panel E,decreased
same,increase of blood pressure induced by the combination of L-NAME and high salt (HSD),[4],prevented the increase

# Source: patent publication US20220054493A1, “INHIBITORS OF NGAL PROTEIN” (INSERM (INSTITUT NATIONAL DE LA SANTÉ ET DE LA RECHERCHE …, priority 2019, published 2022)
